The source made the active and inactive calls. No cut-off for these calls is given here.
System: KB
Test: Cytotoxicity against human KB cells
Format: functional, cell-based

SMILES	Activity
Cn1c2ccccc2c(=O)c2c(O)cc3c(c21)CCC(C)(C)O3	inactive
Cn1c2ccccc2c(=O)c2c(O)cc3c(c21)C=CC(C)(C)O3	inactive
